Source: patent US20250109127A1, “METHODS OF USE OF PHENOXYPROPYLAMINE COMPOUNDS TO TREAT DEPRESSION” (Minerva Neurosciences, Inc., priority 2013, published 2025)
Values joined by “and” are separate entries in the source; they are usually repeats but may differ in a detail not shown here. Identical values can stand only once.

Test system: norepinephrin release in the rat prefrontal cortex
Assay: Microdialysis: norepinephrine release in prefrontal cortex after I.P. administration
Type: in vivo
Details: for NOREPINEPHRIN in dialysate, MEAN / NOREPINEPHRIN in dialysate, individual animals: Citalopram 10 mg/kg I.P.
Description: The aim of the study was to evaluate, using microdialysis, the effects of an intraperitoneal (I.P.) administration in rats of three different doses of SON-117 on dopamine and its metabolites, serotonin and its metabolite (5-HIAA), and norepinephrine levels in prefrontal cortex.
Thirty-two adult male Wistar rats were used for the whole study (4 groups of eight animals planned for the study, Table 1).
Surgery was performed on rats weighing about 300 g at the beginning of the experiments. Rats were anaesthetized with Ketamine (50 mg/kg) & Xylazine (15 mg/kg) by intramuscular administration. The animals were placed in a stereotaxic apparatus in the flat-skull position at a constant setting of −3.3 mm between ear bars and the incisor bar. The animals were treated with a local anesthesic (xylocaine 1%, Astra Zeneca) and an analgesic (Temgesic, from Schering Plough, 0.05 mg/kg, s.c.). A rostrocaudal midline incision was made with a lancet to expose the dorsal skull surface. The “stereotaxic zero” was defined by the Bregma in accordance with Paxinos and Watson's atlas (1986). A hole was drilled in the skull with a drill and the meninges were pierced with a sterile needle to implant a CMA12 guide cannula which later received the dialysis probe.
Coordinates used for implanting guide cannula in prefrontal cortex from Bregma were anteroposterior 3.7 mm, mediolateral 0.8 mm, and dorsoventral −2 mm (top of the probe was at −5 mm). The guide cannula was fixed to the skull with two stainless steel screws (1.88 mm outside diameter) anchored. An application of dental cement was added. A plastic collar allowed each animal to be tethered to a Swivel assembly of the CMA 120 awake animal system. Following surgery, rats were kept in individual cages and allowed to recover for a minimum of 3-5 days before the experimentation. The rats were handled and put in plastic bowl for 10 min at least every day to habituate the animals to their new environment for the dialysis. An I.P. administration with saline was also performed every day.
Dialysis probes (CMA12/3 mm, membrane, 20 kD cut-off, Carnegie Medicine, Stockholm, Sweden), were carefully washed before inserting into the guide cannula. The wash was performed with the artificial cerebrospinal fluid (aCSF) medium (NaCl 147 mM, KCl 2.7 mM, CaCl2 1.2 mM, MgCl2 0.85 mM) at room temperature. The dialysis system was then equilibrated at 20° C. at a perfusion rate of 1 μl/min with a Carnegie pump (CMA100). All catheters (FEP tubing, internal volume of 1.2 μl/10 cm, and tubing adaptors) used for microdialysis were treated in the same conditions.
The probes duly prepared were inserted into the guide cannula and the CMA120 Swivel assembly secured to the animal using a plastic collar. Flow through the dialysis probe with aCSF was maintained at a rate of 1 μl/min during the whole experimentation. The first four fractions (corresponding to 2 hours) were discarded to avoid the effects of parenchymal disturbance and to ensure that an approximate steady-state level was reached. Fractions were then collected over a period of 8.5 h during which time the animals remained quiet. The dialysates were automatically collected with an autosampler (microfraction collector CMA 140, Carnegie Medicin) and stored at −80° C. until analysis. […] Perfusion was then maintained for 7 hours with aCSF. The dialysates (30 μl) were collected into 300 μl vials, transferred into dry ice and then kept frozen (−80° C.) until analysis. Frozen samples were shipped to a partner for analysis. At the end of the microdialysis study, a PBS with colored ink was perfused through the probe in order to visualize the dialyzed area.
Catecholamine assay: Concentrations of dopamine, DOPAC, HVA, 5-HIAA, 5-HT, and norepinephrin were determined for each sample by HPLC coupled with electrochemical detection. […]

In the case of `CN(C)CCCC1(c2ccc(F)cc2)OCc2cc(C#N)ccc21` (stereo not shown) [Citalopram, citalopram, reference compound], the “NOREPINEPHRIN in dialysate, MEAN” value (T0-T30 min) is reported as 82.58 % of respective basal, the “NOREPINEPHRIN in dialysate, MEAN” value (T30-T1 h) is reported as 78.71 % of respective basal and the “NOREPINEPHRIN in dialysate, individual animals” value (T30-T1 h) is reported as 63.38 % of respective basal and 110.18 % of respective basal and 80.74 % of respective basal and 67.88 % of respective basal and 82.89 % of respective basal and 87.03 % of respective basal and 121.77 % of respective basal and 15.77 % of respective basal. The “NOREPINEPHRIN in dialysate, MEAN” value (T1 h 30-T2 h) was 79.06 % of respective basal, the “NOREPINEPHRIN in dialysate, individual animals” value (T1 h 30-T2 h) was 61.03 % of respective basal and 124.09 % of respective basal and 72.92 % of respective basal and 60.40 % of respective basal and 82.59 % of respective basal and 82.64 % of respective basal and 134.98 % of respective basal and 13.8 % of respective basal and the “NOREPINEPHRIN in dialysate, MEAN” value (T1 h-T1 h 30) was 79.69 % of respective basal. For the same molecule, the “NOREPINEPHRIN in dialysate, individual animals” value (T1 h-T1 h 30) was 76.17 % of respective basal and 109.19 % of respective basal and 82.90 % of respective basal and 61.59 % of respective basal and 83.93 % of respective basal and 87.19 % of respective basal and 123.99 % of respective basal and 12.53 % of respective basal, the “NOREPINEPHRIN in dialysate, MEAN” value (T2 h 30-T3 h) was 71.56 % of respective basal and the “NOREPINEPHRIN in dialysate, individual animals” value (T2 h 30-T3 h) was 59.14 % of respective basal and 93.64 % of respective basal and 64.43 % of respective basal and 55.24 % of respective basal and 91.72 % of respective basal and 74.05 % of respective basal and 121.10 % of respective basal and 13.15 % of respective basal. The “NOREPINEPHRIN in dialysate, MEAN” value (T2 h-T2 h 30) was 76.38 % of respective basal, the “NOREPINEPHRIN in dialysate, individual animals” value (T2 h-T2 h 30) was 73.97 % of respective basal and 105.30 % of respective basal and 76.17 % of respective basal and 58.36 % of respective basal and 86.59 % of respective basal and 74.01 % of respective basal and 122.28 % of respective basal and 14.33 % of respective basal and the “NOREPINEPHRIN in dialysate, MEAN” value (T3 h 30-T4 h) was 75.03 % of respective basal. The “NOREPINEPHRIN in dialysate, individual animals” value (T3 h 30-T4 h) was 60.36 % of respective basal and 105.62 % of respective basal and 79.83 % of respective basal and 62.35 % of respective basal and 87.18 % of respective basal and 69.08 % of respective basal and 122.62 % of respective basal and 13.22 % of respective basal, the “NOREPINEPHRIN in dialysate, MEAN” value (T3 h-T3 h 30) was 71.85 % of respective basal and the “NOREPINEPHRIN in dialysate, individual animals” value (T3 h-T3 h 30) was 59.65 % of respective basal and 96.31 % of respective basal and 77.47 % of respective basal and 56.34 % of respective basal and 86.44 % of respective basal and 66.43 % of respective basal and 119.71 % of respective basal and 12.42 % of respective basal. For the same molecule, the “NOREPINEPHRIN in dialysate, MEAN” value (T4 h 30-T5 h) was 79.44 % of respective basal, the “NOREPINEPHRIN in dialysate, individual animals” value (T4 h 30-T5 h) was 76.82 % of respective basal and 116.23 % of respective basal and 73.73 % of respective basal and 66.68 % of respective basal and 84.54 % of respective basal and 70.81 % of respective basal and 127.26 % of respective basal and 19.47 % of respective basal and the “NOREPINEPHRIN in dialysate, MEAN” value (T4 h-T4 h 30) was 79.54 % of respective basal. For the same molecule, the “NOREPINEPHRIN in dialysate, individual animals” value (T4 h-T4 h 30) was 77.6 % of respective basal and 102.09 % of respective basal and 77.48 % of respective basal and 63.90 % of respective basal and 92.86 % of respective basal and 82.33 % of respective basal and 128.7 % of respective basal and 11.39 % of respective basal, the “NOREPINEPHRIN in dialysate, MEAN” value (T5 h 30-T6 h) was 81.93 % of respective basal and the “NOREPINEPHRIN in dialysate, individual animals” value (T5 h 30-T6 h) was 48.16 % of respective basal and 103.46 % of respective basal and 105.10 % of respective basal and 86.55 % of respective basal and 85.91 % of respective basal and 79.07 % of respective basal and 122.12 % of respective basal and 25.1 % of respective basal. The “NOREPINEPHRIN in dialysate, MEAN” value (T5 h-T5 h 30) was 77.65 % of respective basal, the “NOREPINEPHRIN in dialysate, individual animals” value (T5 h-T5 h 30) was 88.27 % of respective basal and 76.54 % of respective basal and 75.84 % of respective basal and 77.15 % of respective basal and 75.13 % of respective basal and 134.83 % of respective basal and 15.76 % of respective basal and the “NOREPINEPHRIN in dialysate, MEAN” value (T6 h 30-T7 h) was 79.84 % of respective basal. The “NOREPINEPHRIN in dialysate, individual animals” value (T6 h 30-T7 h) was 52.47 % of respective basal and 107.42 % of respective basal and 80.22 % of respective basal and 89.35 % of respective basal and 83.18 % of respective basal, the “NOREPINEPHRIN in dialysate, MEAN” value (T6 h-T6 h 30) was 78.38 % of respective basal and the “NOREPINEPHRIN in dialysate, individual animals” value (T6 h-T6 h 30) was 51.36 % of respective basal and 106.33 % of respective basal and 79.91 % of respective basal and 87.03 % of respective basal and 82.07 % of respective basal and 79.77 % of respective basal and 119.62 % of respective basal and 20.91 % of respective basal. The “NOREPINEPHRIN in dialysate, MEAN” value (T-30 min-T0 (pre-dose)) was 95.22 % of respective basal, the “NOREPINEPHRIN in dialysate, MEAN” value (T-1 h 30-T-1 h (pre-dose)) was 92.87 % of respective basal and the “NOREPINEPHRIN in dialysate, MEAN” value (T-1 h-T-30 min (pre-dose)) was 109.53 % of respective basal. The “NE concentration in prefrontal cortex, significant and stable slight decrease” value (citalopram 10 mg/kg I.P., from 0.5 h to 7 h after administration) was 72%.
